Measurements as given in article PMC7961996, “Small Immunomodulatory Molecules as Potential Therapeutics in Experimental Murine Models of Acute Lung Injury (ALI)/Acute Respiratory Distress Syndrome (ARDS)” (International Journal of Molecular Sciences, 2021).

Columns and labels:
CLP-induced sepsis mice [1] = assay: CLP-induced sepsis survival study; format: in vivo, C57BL6/J mice; settings: AVR-48 10 mg/kg IV at 16 h and 24 h after CLP, imipenem 5 mg/kg SC at 30 min; 10 days; CLP alone 100% mortality within 72 h
Experimental: (§1) For CLP-induced lung injury, CLP was performed as previously described by us. As antibiotics are the standard of care in sepsis patients, one dose of imipenem was given SC at 5 mg/kg 30 min after the procedure, followed by two doses of AVR-48 (10 mg/kg, IV) at 16 h and 24 h following the surgery, and sacrificed after 72 h. The sham mice (controls) had the abdominal cavity opened, the cecum was not perforated, and the peritoneum was stitched back.
For the survival study of CLP-induced ALI, mice were injected with 2 doses of AVR-48 (IV) followed by 1 dose of imipenem (SC) as described in the CLP methodology, and allowed to survive for 10 days. Sterility was maintained throughout the procedure by operating the animals under a laminar hood. Following the procedure, the animals were returned back to the animal room for subsequent monitoring and follow up. The body temperature was recorded every 24h and feeding and social behavior was also observed. They were fed with semisolid food for 48h before resuming their regular chow diet. All mice were sacrificed after 10 days. (N=3 for sham and 5 for the rest of the groups). A CLP + imipenem group was not done in this study, as we have published this group […]
imipenem, better than CLP + imipenem alone. Histopathology of the vital organs was performed and scored as previously published (37, 38) and noted in the methods section of this paper.

CLP-induced sepsis mice [2] = assay: CLP-induced lung and organ injury, histopathology scoring; format: in vivo, C57BL6/J mice
Experimental: as §1
H&E staining was performed on 5 µm paraffin lung tissue sections following standardized methods. Four to five random images per lung and 4–5 lungs per experimental group were characterized for lung injury score analysis.
Two different scoring systems were used for lung injury scoring, as the experiments were done at different times. The LPS-/hyperoxia-induced ALI scoring was done by DS, while the CLP-induced lung and other organs’ scoring was done by two additional independent investigators (PD and BA). For the hyperoxia- and LPS-induced lung injury, scoring was done on histological sections based on neutrophil infiltration and epithelial injury using the methods as described before with modifications. Four to five random images per lung and 4–5 lungs per experimental group were characterized for lung injury score analysis. We used a 0–4 scoring system in which 0 = no infiltration/injury, 1 = minimal infiltration/injury to 25% of the field, 2 = mild infiltration/injury […] of the field, 3 = moderate infiltration/injury to 75% of the field, and 4 = severe infiltration/diffuse injury. For the CLP-induced ALI, scoring was done following the methodology as reported earlier by a qualified pathologist (BA) in masked manner. Lungs were harvested from all the mice after the endpoint, and lung injury was scored based on the criteria of alveolar damage and vascular congestion and hemorrhage. As CLP-induced sepsis also results in damage to the rest of the viscera, which can contribute to ALI/ARDS, other organs were also scored as above, to determine the recovery potential of AVR-48 as a candidate drug. The following (cells) were taken into account while scoring the injury level followed by recovery after treatment in other vital organs: heart (myocardium), kidney (glomeruli, tubules), gut (mucosal cells, enterocytes), spleen (lymphoid follicles), liver (hepatocytes), brain (neuronal damage), testis (Seminiferous tubules), and lymph nodes. The final scores were calculated on the basis of total percentage of the damaged/recovered area and by the number of areas/High power field (HPF) as reported above.

[3] = Pharmacokinetic study, bronchoalveolar lavage fluid (BALF); format: in vivo, Sprague Dawley rats
Experimental: All PK studies were also conducted with 8–10-week-old male and female Sprague Dawley rats. An additional nine animals/sex/dose were used for PK analysis and blood (approximately 0.3 mL each) was collected from each rat on days 1 and 3 of the treatment period at time points of 5, 30, 60, 90, 120, and 180 min, and 6, 12 h, and 24 h post dose that were randomized to provide a total of three samples/sex for each time point. Samples were collected by jugular venipuncture and the samples were collected into tubes containing the anticoagulant, K3EDTA. The collection of BALF was limited to the terminal time points of 6 h, 12 h, and 24 h. AVR-48 concentrations in the blood and BALF were determined using LC/MS/MS analysis developed in house. PK parameters were estimated using Phoenix pharmacokinetic software (Certara, Princeton, NJ, USA) using a non-compartmental approach consistent with the IV bolus injection.

[4] = AVR-48 10 mg/kg IV x2 after CLP
[5] = after CLP, Mean ± SEM, CLP alone 4.8± 0.2

CC(=O)N[C@H]1[C@H](Oc2ccc([N+](=O)[O-])cc2)O[C@H](CO)[C@@H](O)[C@@H]1O [AVR-48, N-((2S,3R,4R,5S,6R)-4,5-dihydroxy-6-(hydroxymethyl)-2-(4-nitrophenoxy)tetrahydro-2H-pyran-3-yl) acetamide]
survival (CLP-induced sepsis mice [1]): 80% | lung injury score vs CLP group (CLP-induced sepsis mice [2]; AVR-48 10 mg/kg IV at 16 h and 24 h, sacrificed after 72 h, p < 0.001): significant recovery | appearance of the lung (histopathology) (CLP-induced sepsis mice [2]; [4]): decreased inflammation and hemorrhage | histopathological changes in other vital organs vs CLP-only group (CLP-induced sepsis mice [2]; [4]): dramatic improvement | Injury score: Brain, Neuronal Damage (CLP-induced sepsis mice [2]; [5]): 3.6± 0.245 | Injury score: Brain, Vascular Congestion & Hemorrhage (CLP-induced sepsis mice [2]; [5]): 3.4± 0.245 | Injury score: Gut, MVD (CLP-induced sepsis mice [2]; [5]): 3.6± 0.245 | Injury score: Gut, Vascular Congestion & Hemorrhage (CLP-induced sepsis mice [2]; [5]): 3.6± 0.245 | Injury score: Heart, Myocardial Damage (CLP-induced sepsis mice [2]; [5]): 3.4± 0.245 | Injury score: Heart, Vascular Congestion & Hemorrhage (CLP-induced sepsis mice [2]; [5]): 3.4± 0.4 | Injury score: Kidney, Glomerular Damage (CLP-induced sepsis mice [2]; [5]): 3.6± 0.245 | Injury score: Kidney, Glomerular Injury (CLP-induced sepsis mice [2]; [5]): 3.6± 0.245 | Injury score: Kidney, Vascular Congestion & Hemorrhage (CLP-induced sepsis mice [2]; [5]): 3.6± 0.245 | Injury score: Liver, Hepatocyte Injury (CLP-induced sepsis mice [2]; [5]): 3.6± 0.245 | Injury score: Liver, Vascular Congestion & Hemorrhage (CLP-induced sepsis mice [2]; [5]): 3.6± 0.245 | Injury score: Lung, Alveolar Damage (CLP-induced sepsis mice [2]; [5]): 3.6± 0.245 | Injury score: Lung, Vascular Congestion and Hemorrhage (CLP-induced sepsis mice [2]; [5]): 3.6± 0.245 | Injury score: Lymph Node, Follicular Damage (CLP-induced sepsis mice [2]; [5]): 3.4± 0.245 | Injury score: Spleen, Vascular Congestion & Hemorrhage (CLP-induced sepsis mice [2]; [5]): 3.6± 0.245 | Injury score: Testis, Tubular Damage (CLP-induced sepsis mice [2]; [5]): 3.6± 0.245 | Injury score: Testis, Vascular Congestion & Hemorrhage (CLP-induced sepsis mice [2]; [5]): 3.6± 0.245 | AVR-48 in BALF ([3]; 6 h post administration): measurable concentrations | Kp at 6 h ([3]; Sprague Dawley, rat, BALF (bronchoalveolar lavage fluid) relative to plasma, intravenous, 6 h time point, read-out: BALF-to-plasma ratio): 2.81 to 9.08 | AVR-48 in BALF ([3]; by 12 h): below the limit of detection
